According to patent US6136797A, “Phospholipid derivatives of phosphono-carboxylic acids, the production of said derivatives and the use of said derivatives as antiviral medicaments” (priority 1995, dated 2000):
Converted amounts (≈) assume the structure as drawn. Counter-ions that a name gives are not always drawn.

Tests used:
[1] = tested on: bone marrow stem cells of the granulocytic/monocytic series; test: Bone marrow toxicity in vitro (CFU-GM assay); details: for toxicity on bone marrow stem cells of the granulocytic/monocytic series: in words, up to the highest tested concentration of 100 μg/ml
[2] = tested on: Murine Cytomegaly Virus (MCMV); test: Murine Cytomegaly Virus (MCMV) model, survival rate; format: in vivo, female Balb/c mice; details: 8×10^5 PFU i.p.; oral bioavailability model; drug dose not given
Protocol: Female Balb/c mice were treated i.p. with a dose of 8×10^5 PFU (plaque forming units).

bone marrow = details: AIDS patients; cited from earlier work
[3] = due to similarity to pyrophosphate by accumulation in bones; cited from earlier work
[4] = tested on: HSV 1 and 2, influenza, HBV, VZV, EBV as well as retroviral infections; details: cited from earlier work
[5] = Stability (in the investigations and during production); format: physicochemical; details: in the investigations and during production / under the same conditions

Compound	IC50 ([1]; Mus musculus, CFU-GM) [µg/mL]	toxicity on bone marrow stem cells of the granulocytic/monocytic series [1]	other results
CCCCCCCCCCCCCCCCCCOCC(O)COP(=O)(O)C(=O)OCC (stereo not drawn) [OOHP-PFAE, (3-octadecyloxy-2-hydroxy)-propoxy-hydroxy-phosphinylformic ethyl ester]	59.4 (≈ 123 µM)	more toxic than DMDOP-PFA and DMDOP-PAA	–
CCCCCCCCCCCCSCC(COP(=O)(O)C(=O)O)OCCCCCCCCCC (racemic) [DMDOP-PFA, R,S-(3-Dodecylmercapto-2-decyloxy)-propoxy-hydroxy-phosphinyl-formic acid di-sodium salt]	> 100	no toxicity	survival rate of the animals (rank order) [2]: untreated<Foscarnet treated<DMDOP-PFA treated<DMDOP-PFA-OMe
CCCCCCCCCCCCCCCCCCOCC(O)COP(=O)(O)C(=O)O (stereo not drawn) [OOHP-PFA, (3-octadecyloxy-2-hydroxy)-propoxy-hydroxy-phosphinylformic acid]	94.5 (≈ 209 µM)	more toxic than DMDOP-PFA and DMDOP-PAA	–
Cc1cn([C@H]2C[C@H](N=[N+]=[N-])[C@@H](CO)O2)c(=O)[nH]c1=O [3'-azido-3'-deoxythymidine, 3'-Azido-3'-deoxythymidine]	–	–	treated patients needing blood transfusions due to toxic side effects on the bone marrow (bone marrow): about 50%
O=C(O)P(=O)(O)O [phosphonoformic acid]	> 100	–	survival rate of the animals (rank order) [2]: untreated<Foscarnet treated<DMDOP-PFA treated<DMDOP-PFA-OMe; toxicity [3]: toxic
N.N.[Cl][Pt][Cl] [Cis-DDP (Cisplatin), Cisplatin]	–	–	IC50 ([1]; CFU-GM assay, mean value±SEM, number of experiments in parentheses, highest tested concentration 100 μg/ml): 0.45 ± 0.11 µg/mL
COc1cccc2c1C(=O)c1c(O)c3c(c(O)c1C2=O)C[C@@](O)(C(=O)CO)C[C@@H]3O[C@H]1C[C@H](N)[C@H](O)[C@H](C)O1 [Doxorubicin]	0.046 ± 0.007 (≈ 0.0846 µM)	–	–
CCCCCCCCCCCCSCC(COP(=O)(O)C(=O)OC)OCCCCCCCCCC (racemic) [DMDOP-PFA-OMe, R,S-(3-dodecylmercapto-2-decyloxy)propoxy-hydroxy-phosphinylformic acid methyl ester]	–	–	survival rate of the animals (rank order) [2]: untreated<Foscarnet treated<DMDOP-PFA treated<DMDOP-PFA-OMe
CCCCCCCCCCCCSCC(COP(=O)(O)CC(=O)O)OCCCCCCCCCC (racemic) [DMDOP-PAA, R,S-(3-dodecylmercapto-2-decyloxy)-propoxy-hydroxy-phosphinyl acetic acid di-sodium salt]	> 100	no toxicity	–
O=C(O)CP(=O)(O)O [phosphonoacetic acid]	62.9 (≈ 449 µM)	more toxic than DMDOP-PFA and DMDOP-PAA	toxicity [3]: toxic; antiviral activity [4]: good antiviral activity
CCCCCCCCCCCCCCCCCCOC[C@@H](O)COP(=O)(O)C(=O)O [batylphosphonoformate, 1-O-octadecyl-sn-glycero-3-phosphono-formate]	–	–	stability [5]: unstable
